Calls of active or inactive are those of the source. The calls are words filed in the database; no cut-off is given here.
Assays:
Format in all cases: functional
[1] = system: Frankliniella occidentalis; assay: Thrips luring activity against female Frankliniella occidentalis (western flower thrips) assessed as induction of thrips to walk up odor-laden arm of Y-tube olfactometer by Y-tube olfactometer bioassay
[2] = system: Frankliniella occidentalis; assay: Thrips luring activity against female Frankliniella occidentalis (western flower thrips) assessed as induction of thrips to walk up odor-laden arm of Y-tube olfactometer at 1 uL by Y-tube olfactometer bioassay
[3] = system: Frankliniella occidentalis; assay: Thrips luring activity against female Frankliniella occidentalis (western flower thrips) assessed as induction of thrips to walk up odor-laden arm of Y-tube olfactometer at 1 x 10^-3 uL by Y-tube olfactometer bioassay
[4] = system: Frankliniella occidentalis; assay: Thrips luring activity against female Frankliniella occidentalis (western flower thrips) assessed as induction of thrips to walk up odor-laden arm of Y-tube olfactometer at 1 x 10^-2 uL by Y-tube olfactometer bioassay
[5] = system: Frankliniella occidentalis; assay: Thrips luring activity against female Frankliniella occidentalis (western flower thrips) assessed as induction of thrips to walk up odor-laden arm of Y-tube olfactometer at 1 x 10^-5 uL by Y-tube olfactometer bioassay
[6] = system: Frankliniella occidentalis; assay: Thrips luring activity against female Frankliniella occidentalis (western flower thrips) assessed as induction of thrips to walk up odor-laden arm of Y-tube olfactometer at 5 x 10^-1 uL by Y-tube olfactometer bioassay
[7] = system: Frankliniella occidentalis; assay: Thrips luring activity against female Frankliniella occidentalis (western flower thrips) assessed as trapping of thrips using compound treated yellow sticky traps relative to untreated control under commercial greenhouse
Thrips obscuratus = assay: Thrips luring activity against female New Zealand Thrips obscuratus (flower thrips) assessed as induction of thrips to walk up odor-laden arm of Y-tube olfactometer by Y-tube olfactometer bioassay
[8] = system: Frankliniella occidentalis; assay: Thrips luring activity against female Frankliniella occidentalis (western flower thrips) assessed as induction of thrips to walk up odor-laden arm of Y-tube olfactometer at 1 x 10^-1 uL by Y-tube olfactometer bioassay
[9] = system: Frankliniella occidentalis; assay: Thrips luring activity against female Frankliniella occidentalis (western flower thrips) assessed as induction of thrips to walk up odor-laden arm of Y-tube olfactometer at 5 x 10^-4 uL by Y-tube olfactometer bioassay
[10] = system: Frankliniella occidentalis; assay: Thrips luring activity against female Frankliniella occidentalis (western flower thrips) assessed as induction of thrips to walk up odor-laden arm of Y-tube olfactometer at 5 x 10^-3 uL by Y-tube olfactometer bioassay

Question: With `CCCCC(=O)OC1CC2CCC1(C)C2(C)C` (centres undefined) as the compound, how does the Activity [1] read?
Answer: Active

Question: With `CCOC(=O)c1ccnc(Cl)c1` as the compound, how does the Activity [1] read?
Answer: Active

Question: For `CCCC(O)c1ccncc1` (centres undefined) [1-(4-pyridyl)-1-butanol], which Activity [2] is on record?
Answer: 47%

Question: `OCCc1ccncc1` [4-(2-HYDROXYETHYL)PYRIDINE] was tested. Which Activity [3] did it give?
Answer: 48%

Question: And the Activity [2]?
Answer: 79%

Question: And the Activity [4]?
Answer: 59%

Question: How did the Activity [5] turn out when `O=Cc1ccncc1` [4-FORMYLPYRIDINE] was run?
Answer: Active

Question: And the Activity [4]?
Answer: 15%

Question: `COc1ccc(C=O)cc1` [ANISALDEHYDE] was tested. Which Activity [5] did it give?
Answer: 52%

Question: How did the Activity [6] turn out when `CC(C)N(C(=O)c1ccncc1)C(C)C` [DI-ISOPROPYL ISONICOTINAMIDE] was run?
Answer: 81%

Question: Which results are given for `CCOC(=O)c1ccncc1` [ETHYL ISONICOTINATE]?
Answer: fold change (FC) [7]: 14; MAD (Thrips obscuratus): 1 ×10⁻³ microL; MAD [1]: 1 ×10⁻⁴ microL

Question: Which Activity [2] does the source give for `CCOC(=O)C1CCNCC1` [ETHYL ISONIPECOTATE] here?
Answer: 63%

Question: And the Activity [4]?
Answer: 49%

Question: With `CCOC(=O)c1cccnc1` [ETHYL NICOTINATE] as the compound, how does the MAD (Thrips obscuratus) read?
Answer: 1 ×10⁻⁶ microL

Question: Which Activity [2] does the source give for `CC(C)=CCOC(=O)c1ccncc1` [ISO-PENTENYL ISONICOTINATE] here?
Answer: 49%

Question: `N#Cc1ccncc1` [ISONICOTINONITRILE] was tested. Which Activity [6] did it give?
Answer: 39%

Question: Which MAD [1] does the source give for `CC(C)OC(=O)c1ccncc1` [ISOPROPYL ISONICOTINATE] here?
Answer: 1 ×10⁻² microL

Question: Which “fold change (FC)” value [7] does the source give for `CC(=O)c1ccncc1` [METHYL 4-PYRIDYLKETONE] here?
Answer: 4.5

Question: Which results are given for `COC(=O)c1ccncc1` [METHYL ISONICOTINATE]?
Answer: fold change (FC) [7]: 14; MAD [1]: 1 ×10⁻⁶ microL

Question: Which MAD [1] does the source give for `CCCOC(=O)c1ccncc1` [N-PROPYL ISONICOTINATE] here?
Answer: 1 ×10⁻³ microL

Question: Which results are given for `CCCC(=O)c1ccncc1` [PROPYL 4-PYRIDYL KETONE]?
Answer: Activity [2]: 55%; Activity [8]: 47%

Question: With `OCc1ccncc1` [PYRIDINE 4-METHANOL] as the compound, how does the Activity [2] read?
Answer: 52%

Question: How did the Activity [9] turn out when `c1cc(C2OCCO2)ccn1` [PYRIDINE, 4-(1,3-DIOXALAN-2-YL)] was run?
Answer: 48%

Question: And the Activity [6]?
Answer: 61%

Question: What about the Activity [10] of the same compound?
Answer: 63%

From ChEMBL document CHEMBL3045562, “4-Pyridyl carbonyl compounds as thrips lures: effectiveness for Western flower thrips in y-tube bioassays” (2008)
